Reference: PubChem BioAssay (NCI)
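Step 1: Grow cells in 96-well plates. Step 2: Expose to compound for 48 hours at 5 concentrations. Step 3: Interpolate endpoints linearly; if unreached, use highest concentration. At the GI50, growth is halved. Definition used: TGI = concentration required for complete inhibition of growth.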

What was measured:
Experiment in all cases: DTP human tumour cell line panel, 48 h
CAKI-1 renal = test system: CAKI-1 renal
LOX IMVI melanoma = test system: LOX IMVI melanoma
OVCAR-4 ovarian = test system: OVCAR-4 ovarian
OVCAR-5 ovarian = test system: OVCAR-5 ovarian
HCT-15 colon = test system: HCT-15 colon
MALME-3M melanoma = test system: MALME-3M melanoma
RPMI-8226 leukemia = test system: RPMI-8226 leukemia
SF-295 CNS = test system: SF-295 CNS
HT29 colon = test system: HT29 colon
NCI/ADR-RES ovarian = test system: NCI/ADR-RES ovarian

Structure (SMILES) | TGI (CAKI-1 renal) | TGI (LOX IMVI melanoma) | TGI (OVCAR-4 ovarian) | TGI (OVCAR-5 ovarian) | TGI (HCT-15 colon) | TGI (MALME-3M melanoma) | TGI (RPMI-8226 leukemia) | TGI (SF-295 CNS) | TGI (HT29 colon) | GI50 (CAKI-1 renal) | GI50 (LOX IMVI melanoma) | GI50 (OVCAR-5 ovarian) | GI50 (HCT-15 colon) | GI50 (RPMI-8226 leukemia) | GI50 (SF-295 CNS) | GI50 (HT29 colon) | TGI (NCI/ADR-RES ovarian) | GI50 (OVCAR-4 ovarian) | GI50 (MALME-3M melanoma) | GI50 (NCI/ADR-RES ovarian)
CC/C(CC(=O)CCC(=O)Nc1ccccc1[N+](=O)[O-])=N/NC(=O)C[n+]1ccccc1 | > 100 µM | > 100 µM | > 100 µM | > 100 µM | > 100 µM | > 100 µM | > 100 µM | > 100 µM | > 100 µM | – | – | – | – | – | – | – | – | – | – | –
Cc1cc(Cl)ccc1NC(=O)C(=O)C(C(=O)c1ccc2ccccc2c1)C1OC(=O)c2ccccc21 (stereo not drawn) | 35.5 µM | 32.2 µM | 25.5 µM | 48.4 µM | 50.9 µM | 22.8 µM | 35.5 µM | – | 72.6 µM | – | – | – | – | – | – | – | – | – | – | –
COc1ccc(OC)c(-c2cc(-c3ccc(Cl)cc3)nn2-c2ccc(S(=O)(=O)NC(C)=O)cc2)c1 | > 100 µM | 3.65 µM | – | 19.3 µM | 18.8 µM | – | 7.5 µM | > 100 µM | > 100 µM | 37.6 µM | 1.79 µM | 5.97 µM | 3.29 µM | 4.75 µM | 42.8 µM | 5.54 µM | – | – | – | –
C=C(Nc1ccc([N+](=O)[O-])cc1[N+](=O)[O-])c1c/c(=N\NC(N)=S)c2ccccc2o1 | > 100 µM | > 100 µM | > 100 µM | > 100 µM | > 100 µM | – | – | > 100 µM | > 100 µM | – | – | – | – | – | – | – | > 100 µM | – | – | –
CCC(CNc1cc(OC)cc2cccnc12)NC1CCCCC1 (stereo not drawn) | > 100 µM | > 100 µM | > 100 µM | > 100 µM | > 100 µM | 34.8 µM | – | 45.8 µM | – | 21.9 µM | 28.6 µM | 61 µM | 34.9 µM | – | 17.3 µM | – | > 100 µM | 6.2 µM | 17.2 µM | 35.3 µM
CCOC(=O)C(C)(C)Oc1ccc(/C=C/C(=O)c2ccc(Cl)cc2)cc1 | – | 30.7 µM | 32.9 µM | – | 34.3 µM | 34.6 µM | 53 µM | 41.2 µM | 29.3 µM | – | – | – | – | – | – | – | – | – | – | –
COC(C(=O)NCCCCNC(=O)C(OC)c1ccccc1)c1ccccc1 (stereo not drawn) | > 100 µM | > 100 µM | > 100 µM | > 100 µM | > 100 µM | > 100 µM | > 100 µM | > 100 µM | > 100 µM | – | – | – | – | – | – | – | – | – | – | –
CN(C)C=C1C(Cl)=C(C=O)CC(C=O)=C1Cl | 31.2 µM | 6.07 µM | 27.9 µM | 30 µM | 11.9 µM | 24.4 µM | 7.2 µM | 41.7 µM | 30 µM | – | – | – | – | – | – | – | – | – | – | –
O=C(Nc1cccc(O)c1)C(=O)C(C(=O)c1ccc(Cl)c(Cl)c1)C1OC(=O)c2ccccc21 (stereo not drawn) | 75 µM | 33.8 µM | 36.7 µM | 65.2 µM | 35 µM | 33.8 µM | 54.5 µM | 62.6 µM | 68.4 µM | – | – | – | – | – | – | – | – | – | – | –
CC[N+]1(C)CCC(O)(c2ccc(OC)cc2)C(C(=O)c2ccc(OC)cc2)C1 (stereo not drawn) | 11 µM | 34.3 µM | 51.2 µM | 35.3 µM | 25.3 µM | 17.2 µM | 5.92 µM | 38.9 µM | 15.7 µM | – | – | – | – | – | – | – | – | – | – | –
COc1cc(CNc2ccccc2C(=O)N2CCN(C(=O)c3cc(-c4cc(OC)c(OC)c(OC)c4)n4nc(-c5ccccc5)cc4n3)CC2)cc(OC)c1OC | > 100 µM | > 100 µM | > 100 µM | > 100 µM | > 100 µM | – | – | – | 12 µM | 1.39 µM | 4.86 µM | 10.9 µM | 4.25 µM | – | – | 3.5 µM | 5.76 µM | 4.37 µM | – | 1.95 µM
O=C1OC(O)C(Oc2c(Cl)cccc2Cl)=C1Cl (stereo not drawn) | 48 µM | 34 µM | – | 46 µM | 29 µM | 75.4 µM | 57 µM | 33.9 µM | 34.3 µM | – | – | – | – | – | – | – | – | – | – | –
CC(C)(C)C1CCC2c3c([nH]c4ccccc34)C3C(=O)N(c4ccccc4)C(=O)C3C2C1 (stereo not drawn) | – | 15.3 µM | 5.36 µM | > 100 µM | > 100 µM | 7.31 µM | 28.4 µM | 16.4 µM | > 100 µM | – | – | – | – | – | – | – | – | – | – | –
CSc1n[n+]2c(s1)SCCC2 | > 100 µM | > 100 µM | > 100 µM | > 100 µM | – | > 100 µM | – | > 100 µM | > 100 µM | – | – | – | – | – | – | – | – | – | – | –
O=[N+]([O-])C1Cc2ccccc2OC1c1ccccc1 (stereo not drawn) | 99 µM | 31.9 µM | > 100 µM | > 100 µM | – | > 100 µM | – | > 100 µM | > 100 µM | – | – | – | – | – | – | – | – | – | – | –
CC(=O)[CH-]C(=O)c1ccccc1.CC(=O)[CH-]C(=O)c1ccccc1.CCOCC[O-].CCOCC[O-].[Ti+4] | 57.8 µM | > 100 µM | > 100 µM | 60.7 µM | 91.9 µM | 43.7 µM | 58.7 µM | 33.9 µM | 46.2 µM | 19.2 µM | 37.8 µM | 26.8 µM | 28.3 µM | 18 µM | 17.5 µM | 20.1 µM | – | 31.9 µM | 16.9 µM | –
COc1ccc(/C=N\Nc2ccc([N+](=O)[O-])cn2)cc1OC | – | > 100 µM | – | > 100 µM | > 100 µM | > 100 µM | – | > 100 µM | > 100 µM | – | > 100 µM | > 100 µM | > 100 µM | – | > 100 µM | > 100 µM | > 100 µM | – | > 100 µM | > 100 µM
O=c1c2cccc3cccc(c4n1CCN=4)c32 | > 100 µM | 80.5 µM | > 100 µM | > 100 µM | > 100 µM | > 100 µM | > 100 µM | > 100 µM | > 100 µM | – | – | – | – | – | – | – | – | – | – | –
C=C[C@@]1(O)CCCC2=C(C(=O)OCC)CC[C@]21C | – | – | – | > 100 µM | > 100 µM | > 100 µM | > 100 µM | > 100 µM | > 100 µM | – | – | – | – | – | – | – | – | – | – | –
FC(F)(F)C1(Br)C(c2ccccc2)=C1c1ccccc1 | 54.7 µM | 28 µM | 54 µM | 52 µM | 28 µM | 30.5 µM | > 100 µM | 28.7 µM | 34.8 µM | – | – | – | – | – | – | – | – | – | – | –
